According to PubChem BioAssay (NCI):
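Grown in 96-well plates, cells were treated for 48 hours with each compound at five concentrations. Insufficient inhibition: endpoint recorded as highest concentration tested. TGI: concentration producing complete growth inhibition.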

Experiments:
Experiment in all cases: inhibition of tumour cell growth, NCI panel, 48 h
KM12 colon = test system: KM12 colon
SK-OV-3 ovarian = test system: SK-OV-3 ovarian
SNB-19 CNS = test system: SNB-19 CNS
PC-3 prostate = test system: PC-3 prostate
SNB-75 CNS = test system: SNB-75 CNS
UACC-257 melanoma = test system: UACC-257 melanoma
NCI/ADR-RES ovarian = test system: NCI/ADR-RES ovarian
COLO 205 colon = test system: COLO 205 colon
HOP-62 NSCLC = test system: HOP-62 NSCLC
OVCAR-5 ovarian = test system: OVCAR-5 ovarian
HOP-92 NSCLC = test system: HOP-92 NSCLC
HS 578T breast = test system: HS 578T breast
UO-31 renal = test system: UO-31 renal
SF-268 CNS = test system: SF-268 CNS
A549 NSCLC = test system: A549 NSCLC
UACC-62 melanoma = test system: UACC-62 melanoma
MCF7 breast = test system: MCF7 breast
MDA-MB-435 = test system: MDA-MB-435
A498 renal = test system: A498 renal
LOX IMVI melanoma = test system: LOX IMVI melanoma
HL-60(TB) leukemia = test system: HL-60(TB) leukemia
DU-145 prostate = test system: DU-145 prostate
NCI-H23 lung = test system: NCI-H23 lung
HCT-15 colon = test system: HCT-15 colon
NCI-H460 lung = test system: NCI-H460 lung
K-562 leukemia = test system: K-562 leukemia
OVCAR-8 ovarian = test system: OVCAR-8 ovarian
T-47D breast = test system: T-47D breast
NCI-H226 lung = test system: NCI-H226 lung
HCC-2998 colon = test system: HCC-2998 colon
MDA-MB-231 breast = test system: MDA-MB-231 breast
SK-MEL-2 melanoma = test system: SK-MEL-2 melanoma
786-0 renal = test system: 786-0 renal
IGROV1 ovarian = test system: IGROV1 ovarian
M14 melanoma = test system: M14 melanoma
SR leukemia = test system: SR leukemia
HCT-116 colon = test system: HCT-116 colon
SF-295 CNS = test system: SF-295 CNS
ACHN renal = test system: ACHN renal
SW-620 colon = test system: SW-620 colon
TK-10 renal = test system: TK-10 renal
CAKI-1 renal = test system: CAKI-1 renal
MOLT-4 leukemia = test system: MOLT-4 leukemia
EKVX NSCLC = test system: EKVX NSCLC
SK-MEL-28 melanoma = test system: SK-MEL-28 melanoma
RPMI-8226 leukemia = test system: RPMI-8226 leukemia
SK-MEL-5 melanoma = test system: SK-MEL-5 melanoma
OVCAR-4 ovarian = test system: OVCAR-4 ovarian
U251 CNS = test system: U251 CNS
SN12C renal = test system: SN12C renal
OVCAR-3 ovarian = test system: OVCAR-3 ovarian
RXF 393 renal = test system: RXF 393 renal
HT29 colon = test system: HT29 colon
MDA-N = test system: MDA-N
SF-539 CNS = test system: SF-539 CNS
BT-549 breast = test system: BT-549 breast
MALME-3M melanoma = test system: MALME-3M melanoma
NCI-H522 lung = test system: NCI-H522 lung

CCOC(=O)/C(=C\c1cccc(C)c1)C(C)=O
TGI (KM12 colon): 32.9 µM | TGI (SK-OV-3 ovarian): > 100 µM | TGI (SNB-19 CNS): 36.7 µM | TGI (PC-3 prostate): 28.3 µM | TGI (SNB-75 CNS): 25.2 µM | TGI (UACC-257 melanoma): 35.1 µM | TGI (NCI/ADR-RES ovarian): 79.5 µM | TGI (COLO 205 colon): 41 µM | TGI (HOP-62 NSCLC): 96.1 µM | TGI (OVCAR-5 ovarian): 31 µM | TGI (HOP-92 NSCLC): 34.8 µM | TGI (HS 578T breast): 51.3 µM | TGI (UO-31 renal): 33.7 µM | TGI (SF-268 CNS): 45.4 µM | TGI (A549 NSCLC): > 100 µM | TGI (UACC-62 melanoma): 31.7 µM | TGI (MCF7 breast): 35.4 µM | TGI (MDA-MB-435): 45.4 µM | TGI (A498 renal): 52 µM | TGI (LOX IMVI melanoma): 26.5 µM | TGI (HL-60(TB) leukemia): 32.2 µM | TGI (DU-145 prostate): 38.7 µM | TGI (NCI-H23 lung): 39 µM | TGI (HCT-15 colon): 38.9 µM | TGI (NCI-H460 lung): 51.6 µM | TGI (K-562 leukemia): > 100 µM | TGI (OVCAR-8 ovarian): 75.1 µM | TGI (T-47D breast): 46.7 µM | TGI (NCI-H226 lung): > 100 µM | TGI (HCC-2998 colon): 28.4 µM | TGI (MDA-MB-231 breast): 28.9 µM | TGI (SK-MEL-2 melanoma): 26.1 µM | TGI (786-0 renal): 26.4 µM | TGI (IGROV1 ovarian): 40.8 µM | TGI (M14 melanoma): 44.3 µM | TGI (SR leukemia): 84.5 µM | TGI (HCT-116 colon): 30.4 µM | TGI (SF-295 CNS): 55.8 µM | TGI (ACHN renal): 66 µM | TGI (SW-620 colon): 27 µM | TGI (TK-10 renal): 44.3 µM | TGI (CAKI-1 renal): 98.8 µM | TGI (MOLT-4 leukemia): 66.6 µM | TGI (EKVX NSCLC): > 100 µM | TGI (SK-MEL-28 melanoma): 30.5 µM | TGI (RPMI-8226 leukemia): 32.2 µM | TGI (SK-MEL-5 melanoma): 32 µM | TGI (OVCAR-4 ovarian): 59.6 µM | TGI (U251 CNS): 26.2 µM | TGI (SN12C renal): 41.7 µM | TGI (OVCAR-3 ovarian): 28.1 µM | TGI (RXF 393 renal): 24.9 µM | TGI (HT29 colon): > 100 µM | TGI (MDA-N): 31.4 µM | TGI (SF-539 CNS): 40.3 µM | TGI (BT-549 breast): 22.7 µM | TGI (MALME-3M melanoma): 31.4 µM | TGI (NCI-H522 lung): 22.8 µM
